Patent US12226431B2 (priority 2021, dated 2025)

Key:
[1] = preservative in nasal sprays and nebulization; cited from earlier work
[2] = tested on: SARS-COV-2; details: two weeks of receiving the quercetin treatment; cited from earlier work
[3] = tested on: influenza virus; details: cited from earlier work
[4] = tested on: cell plasma membrane; test: Cells exposed to increasing concentration of M-βCD to deplete plasma membrane cholesterol: phospholipid uptake and membrane fusion proteins; format: cell-based
[5] = tested on: pseudorabies virus; details: cited from earlier work
[6] = tested on: vaccinia virus; details: depletion of plasma membrane cholesterol in host cells; cited from earlier work
[7] = increasing concentration of M-βCD, cholesterol depletion

## OCc1ccccc1 [phenylcarbinol]
[1]
  adverse / toxic effects: toxic effects

## O=c1c(O)c(-c2ccc(O)c(O)c2)oc2cc(O)cc(O)c12 [quercetin]
[2]
  SARS-COV-2 infected patients cleared of the virus: 98%
[3]
  therapeutic effects against influenza virus: therapeutic effects

## Benzalkonium chloride
[1]
  adverse / toxic effects: sino-nasal mucosal injury, nasal squamous metaplasia, ciliary dysmotility, genotoxicity, and other adverse effects

## methyl beta cyclodextrin [M-βCD]
[4]; [7]
  uptake of phosphatidyl serine by the cell plasma membrane: loss in the uptake
  uptake of phosphatidylethanolamine by the cell plasma membrane: remain unchanged
[4]; loss of cholesterol from the cell plasma membrane
  membrane fusion proteins syntaxin and SNAP25 at the plasma membrane: depletion of membrane fusion proteins
[5]
  entry of pseudorabies virus into cells: significantly reduces
[6]
  entry of vaccinia virus into cells: significantly reduces
